We go through four compounds from patent US9422267B2, “Fused pyrimidine compounds and use thereof” (Medivation Technologies, Inc., priority 2012, dated 2016).

What is called IC50 is the point on the concentration scale where inhibition reaches its midpoint.

“And” between values parts separate entries of the source, which are not always exact repeats. Equal entries are not always repeated. Where two headings read alike, the source gives them in different places. Some results are limits rather than exact numbers.

In test [1] the test system is Akt phosphorylation induced by IGF-1R in HT-29 cells. Nature of the test: Western blot analysis of Akt phosphorylation induced by IGF-1R. The conditions noted are these: then IGF-1 10 ng/mL 10 min, HT-29. Type of test: cell-based, Human. On the technique in general: A western blot detects proteins with antibodies after separation by electrophoresis.
In test [2] the test system is HT-29. In words: Cell Titer-Glo cell viability: HT-29. The conditions noted are these: Homo sapiens, HT-29, 72 h. The format is cell-based. As for the experimental part:
(§1) This assay quantitates the ATP present in order to determine the number of viable cells in culture. Briefly, the compounds were incubated with the cells for 72 h, followed by cell lysis. The resulting luminescent signal is proportional to the amount of ATP present and, therefore, directly proportional to the number of cells present in culture.
(§2) Compound nos. […] These cell lines are derived from human lung carcinoma, colon adenocarcinoma, colon adenocarcinoma, colon carcinoma, acute promyelocytic leukemia, colon adenocarcinoma, colon adenocarcinoma (from metastatic site lymph node), respectively.
(§3) Compounds 2b, 5, 6b and 10a were tested along with derivatives in viability assays as described above by Caliper LifeSciences Systems (Hanover, Md.), in A549, HCT-15, HCT-116, MCF-7, MDA-MB-231, OVCAR3, T47D, COLO205, HT-29, BT-20, HCC1187, HL-60, MDA-MB-175, SW-620, and UACC812 cells.

Test [3] deals with HL-60. Nature of the test: Cell Titer-Glo cell viability: HL-60. The format is cell-based, human. The conditions noted are these: Homo sapiens, HL-60, 72 h. As for the experimental part:
as §1, §2, §3
For orientation: ATP-based viability assays read luminescence as a measure of living cells.

Test [4] has as its system COLO 205. Nature of the test: Cell Titer-Glo cell viability: COLO 205. The format is cell-based. The following applies: Homo sapiens, COLO 205, 72 h. As for the experimental part:
as §1, §2, §3

For test [5], the system named is HCT-116. Nature of the test: Cell Titer-Glo cell viability: HCT-116. The conditions noted are these: Homo sapiens, HCT116, colon carcinoma. Type of test: cell-based. As for the experimental part: as §1, §2, §3
Test [6] deals with SW-620. Nature of the test: Cell Titer-Glo cell viability: SW-620. Type of test: cell-based. The conditions noted are these: Homo sapiens, SW-620, 72 h, SW-620, metastatic colorectal cancer. How it is done: as §1, §2, §3
The subject of test [7] is MCF-7. In words: Cell Titer-Glo cell viability: MCF-7. Type of test: cell-based. The conditions noted are these: Homo sapiens, MCF7, breast cancer. As for the experimental part: (§4) Compound nos. […] This panel of cell lines includes an ER− breast carcinoma, primary breast ductal carcinoma, prostate adenocarcinoma, mammary adenocarcinoma, mammary ductal carcinoma, mammary ductal carcinoma, ovary adenocarcinoma, ER+ breast carcinoma, ER-HER2+ mammary ductal carcinoma and an ER+ mammary ductal carcinoma, respectively.
as §1, §3

The subject of test [8] is T47D. Nature of the test: Cell Titer-Glo cell viability: T47D. The format is cell-based. The following applies: Homo sapiens, breast cancer. How it is done: as §4, §1, §3
In test [9] the test system is MDA MB 175. In words: Cell Titer-Glo cell viability: MDA MB 175. Type of test: cell-based. As for the experimental part: as §4, §1, §3
(§5) The inhibitory effects of Compound 8a were tested in two cell lines.

The test system of test [10] is OVCAR-3. In words: Cell Titer-Glo cell viability: OVCAR-3. The following applies: Homo sapiens, OVCAR3, ovarian cancer. The format is cell-based. As for the experimental part:
as §4, §1, §3

In test [11] the test system is UACC 812. In words: Cell Titer-Glo cell viability: UACC 812. The format is cell-based. The following applies: Homo sapiens. How it is done: as §4, §1, §3, §5
Test [12] concerns the target T1, AXL (Homo sapiens, UniProt P30530).
T1 sequence (P30530 26-894): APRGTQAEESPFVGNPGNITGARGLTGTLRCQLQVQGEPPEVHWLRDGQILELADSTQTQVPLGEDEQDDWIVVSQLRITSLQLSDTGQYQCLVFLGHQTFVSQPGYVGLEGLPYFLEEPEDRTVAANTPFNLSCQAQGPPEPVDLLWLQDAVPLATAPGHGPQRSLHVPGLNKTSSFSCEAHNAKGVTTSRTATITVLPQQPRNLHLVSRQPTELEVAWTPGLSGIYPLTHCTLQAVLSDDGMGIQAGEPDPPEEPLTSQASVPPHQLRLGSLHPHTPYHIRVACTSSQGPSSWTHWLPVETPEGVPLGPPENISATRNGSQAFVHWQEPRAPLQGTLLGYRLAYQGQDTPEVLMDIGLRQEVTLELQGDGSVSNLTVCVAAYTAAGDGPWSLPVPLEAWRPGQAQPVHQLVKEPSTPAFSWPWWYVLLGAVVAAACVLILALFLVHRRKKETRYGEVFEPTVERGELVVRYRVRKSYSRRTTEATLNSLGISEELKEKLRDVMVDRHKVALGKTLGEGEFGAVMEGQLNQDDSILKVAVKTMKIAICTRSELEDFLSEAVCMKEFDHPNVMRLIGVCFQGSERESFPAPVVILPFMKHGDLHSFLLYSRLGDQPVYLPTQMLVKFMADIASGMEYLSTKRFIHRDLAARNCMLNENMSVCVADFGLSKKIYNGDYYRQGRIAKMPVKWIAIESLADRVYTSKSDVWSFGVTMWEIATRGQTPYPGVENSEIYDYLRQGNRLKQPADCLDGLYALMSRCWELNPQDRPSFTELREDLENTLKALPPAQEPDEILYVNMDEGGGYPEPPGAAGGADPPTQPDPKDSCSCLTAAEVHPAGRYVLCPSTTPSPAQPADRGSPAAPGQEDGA
Nature of the test: Caliper kinase profiling: AXL. The conditions noted are these: for inhibition at 0.01 µM: read-out: Average % Inh @ 10 nM; for inhibition of AXL in panel of 11 kinases: 0.01 μM.
Procedure: (§6) The compound was tested at concentrations of 1.0×10^−8 and 1.0×10^−9 M in the RapidKinase192™ panel in duplicate. […] The screening was performed using the Caliper EZReader2, a 4-sipper LabChip, and ProfilerPro Kinase Selectivity Assay Kits 1 and 2. The assay measures the conversion of a fluorescent peptide substrate to a phosphorylated product. Briefly, the reaction mixture was introduced through a capillary sipper onto the microfluidic chip, where the substrate and product were electrophoretically separated and detected by laser-induced fluorescence. The time-dependent fluorescence signal indicates the extent of the reaction.
(§7) The kinases tested were AurA, AurB, AurC, AXL, FAK2, IGF1R, InsR, Mer, MET, TrkB and TrkC.
(§8) The assays were conducted using the Caliper LabChip 3000 and a 12-sipper LabChip as described above.

Test [13] has as its target FAK2(PTK2b) (Homo sapiens, UniProt Q14289). Nature of the test: Caliper kinase assay: FAK2(PTK2b). The conditions noted are these: for inhibition of FAK2 in panel of 11 kinases: 0.01 μM.
Procedure: as §6, §7, §8
The target of test [14] is T2, IR (Homo sapiens, UniProt P06213).
T2 construct: purchased Millipore 14-803
T2 sequence (P06213 28-1382): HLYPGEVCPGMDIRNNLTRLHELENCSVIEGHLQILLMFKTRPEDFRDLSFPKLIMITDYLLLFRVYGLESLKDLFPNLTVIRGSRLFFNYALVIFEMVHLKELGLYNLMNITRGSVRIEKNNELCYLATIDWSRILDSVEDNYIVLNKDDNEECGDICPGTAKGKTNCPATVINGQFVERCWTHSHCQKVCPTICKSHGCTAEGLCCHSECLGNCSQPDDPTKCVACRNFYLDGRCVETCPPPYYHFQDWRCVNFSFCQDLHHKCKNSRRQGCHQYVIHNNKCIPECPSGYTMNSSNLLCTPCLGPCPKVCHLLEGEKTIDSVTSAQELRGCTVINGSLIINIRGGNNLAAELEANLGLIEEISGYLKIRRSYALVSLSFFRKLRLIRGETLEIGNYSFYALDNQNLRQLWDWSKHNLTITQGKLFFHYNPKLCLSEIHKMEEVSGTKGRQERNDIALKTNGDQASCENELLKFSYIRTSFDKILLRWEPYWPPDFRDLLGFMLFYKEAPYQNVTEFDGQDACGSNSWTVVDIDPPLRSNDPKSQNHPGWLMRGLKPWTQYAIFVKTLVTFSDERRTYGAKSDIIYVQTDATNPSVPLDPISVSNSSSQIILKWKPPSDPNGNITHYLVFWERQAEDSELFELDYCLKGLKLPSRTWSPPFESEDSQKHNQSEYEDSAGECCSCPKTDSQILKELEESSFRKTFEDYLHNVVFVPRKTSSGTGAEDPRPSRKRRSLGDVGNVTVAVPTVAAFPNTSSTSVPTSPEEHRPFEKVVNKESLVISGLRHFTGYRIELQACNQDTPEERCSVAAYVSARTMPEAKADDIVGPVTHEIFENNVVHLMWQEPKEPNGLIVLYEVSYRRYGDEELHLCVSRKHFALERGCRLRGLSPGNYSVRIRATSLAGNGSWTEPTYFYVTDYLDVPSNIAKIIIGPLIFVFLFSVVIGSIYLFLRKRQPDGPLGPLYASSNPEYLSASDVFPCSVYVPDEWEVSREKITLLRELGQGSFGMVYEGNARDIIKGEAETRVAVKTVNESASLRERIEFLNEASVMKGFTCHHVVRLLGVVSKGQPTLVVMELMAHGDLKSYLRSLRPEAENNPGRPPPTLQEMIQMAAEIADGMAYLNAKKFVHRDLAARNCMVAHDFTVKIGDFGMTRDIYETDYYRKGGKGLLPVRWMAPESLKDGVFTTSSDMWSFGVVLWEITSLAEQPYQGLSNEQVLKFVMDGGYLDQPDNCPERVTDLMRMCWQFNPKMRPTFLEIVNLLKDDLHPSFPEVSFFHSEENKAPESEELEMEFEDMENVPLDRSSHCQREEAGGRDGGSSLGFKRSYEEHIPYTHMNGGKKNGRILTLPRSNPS
In words: In vitro IR enzymatic assay (ADP-Glo kinase assay). The format is biochemical. How it is done: IC50 values of the compounds of the invention against IGF-1R and IR were measured in vitro using an ADP-Glo kinase assay Kit (Promega). […] Kinase reactions in both assays were conducted at 30° C. for 20 min with increasing concentrations of compounds of the invention.
(In general: ADP-Glo first removes unused ATP, then detects ADP through luciferase.)

[15] abbreviates: HL60, promyelocytic leukemia (second entry of the table), 72 h.
Setting [16] is: HL-60, promyelocytic leukemia, 72 h.
Setting [17] is: COLO-205, colon adenocarcinoma, 72 h.
Where [18] appears, read: HT-29, colon adenocarcinoma, 72 h incubation, Cell Titer-Glo.
The mark [19] stands for this setting: HL60, promyelocytic leukemia, 72 h incubation, Cell Titer-Glo.
The mark [20] stands for this setting: COLO205, colon cancer, 72 h incubation, Cell Titer-Glo.
The mark [21] stands for this setting: 72 h incubation, Cell Titer-Glo.
Where [22] appears, read: MDA-MB-175, breast cancer, 72 h incubation, Cell Titer-Glo.
[23] abbreviates: UACC 812, breast cancer, 72 h incubation, Cell Titer-Glo.

Sequence of FAK2(PTK2b) (Q14289 whole entry): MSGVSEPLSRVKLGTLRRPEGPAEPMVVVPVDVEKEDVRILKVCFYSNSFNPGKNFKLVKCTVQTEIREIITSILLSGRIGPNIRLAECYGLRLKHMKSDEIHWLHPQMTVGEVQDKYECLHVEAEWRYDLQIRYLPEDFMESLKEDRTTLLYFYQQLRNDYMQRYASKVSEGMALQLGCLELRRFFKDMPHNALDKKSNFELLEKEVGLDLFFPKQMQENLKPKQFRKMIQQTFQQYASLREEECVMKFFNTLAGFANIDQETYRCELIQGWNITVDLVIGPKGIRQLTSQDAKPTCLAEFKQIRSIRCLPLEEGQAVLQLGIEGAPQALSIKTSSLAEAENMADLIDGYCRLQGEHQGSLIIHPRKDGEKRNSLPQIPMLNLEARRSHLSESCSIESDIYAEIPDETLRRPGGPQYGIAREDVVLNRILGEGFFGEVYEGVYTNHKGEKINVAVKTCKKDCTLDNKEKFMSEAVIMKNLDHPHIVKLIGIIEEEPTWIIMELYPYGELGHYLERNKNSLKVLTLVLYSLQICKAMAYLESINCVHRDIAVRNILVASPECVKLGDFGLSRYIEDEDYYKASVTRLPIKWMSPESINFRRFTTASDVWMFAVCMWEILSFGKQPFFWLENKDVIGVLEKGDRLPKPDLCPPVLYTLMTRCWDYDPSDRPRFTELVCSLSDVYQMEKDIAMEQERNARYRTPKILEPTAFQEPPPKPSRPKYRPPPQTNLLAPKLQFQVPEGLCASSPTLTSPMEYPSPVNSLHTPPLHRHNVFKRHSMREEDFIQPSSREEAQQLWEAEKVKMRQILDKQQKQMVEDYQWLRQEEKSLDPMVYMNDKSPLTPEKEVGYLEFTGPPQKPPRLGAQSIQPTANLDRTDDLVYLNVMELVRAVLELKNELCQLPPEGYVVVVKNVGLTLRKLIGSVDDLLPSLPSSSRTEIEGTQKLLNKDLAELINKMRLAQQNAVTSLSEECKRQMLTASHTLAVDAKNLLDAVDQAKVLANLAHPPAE

Regarding `CC(C)c1cc(Nc2nc(N3CCCC3C(=O)Nc3ccc(F)nc3)nc3c2CCC3)n[nH]1` (single isomer, unassigned) [Compound 8b], the figures for the “phosphorylated AKT levels normalized to actin levels (pAKT/actin)” value in test [1] (1 nM compound 2 h), in test [1] (10 nM compound 2 h) and in test [1] (100 nM compound 2 h) were 0.31, 0.04 and 0.02, respectively. In addition, the IC50 in [2] (HT29, colon adenocarcinoma (second entry of the table), 72 h) is < 10 nM; in [2] (HT-29, colon cancer, 72 h) it was < 10 nM; in test [3] (setting [15]), < 10 nM; in test [3] (setting [16]), 10 nM; in test [4] (setting [17]) it was < 10 nM; in [5] (72 h), 1000 nM. The IC50 was 1000 nM in test [6] (72 h); < 10000 nM in test [7] (72 h); < 1000 nM in [8] (72 h); < 10000 nM in [9] (MDAMB175, breast cancer, 72 h); 1000 nM in test [10] (72 h); < 10000 nM in test [11] (UACC-812, UACC812, breast cancer, 72 h). Also, the IC50 in test [12] is 9.76 nM; in [13] it was 2.36 nM. For the same compound, the inhibition at 0.001 µM in test [12] (read-out: Average % Inh @ 1 nM) was < 39%. Also, the inhibition at 0.01 µM in test [12] was in the range of 40 to 59%.
For the compound `O=C(Nc1cnccn1)C1CCCN1c1nc2c(c(Nc3cc(C4CC4)[nH]n3)n1)CCC2` (single isomer, unassigned) [Compound 6b], the “phosphorylated AKT levels normalized to actin levels (pAKT/actin)” value in test [1] (0.1 nM compound 2 h) came to 0.87; in [1] (1 nM compound 2 h), 0.18; in [1] (10 nM compound 2 h) it was 0.00; in [1] (100 nM compound 2 h) it was 0.00. Besides, the half-maximal inhibitory concentration (IC50) is 4.13e-08 M in test [14] (activated IR, read-out: IC50); < 10 nM in [2] (setting [18]); < 1000 nM in test [3] (setting [19]); < 100 nM in test [4] (setting [20]); < 1000 nM in test [5] (setting [21]); < 1000 nM in [6] (setting [21]). In addition, the half-maximal inhibitory concentration (IC50) was < 1000 nM in test [7] (setting [21]); < 1000 nM in [8] (setting [21]); < 1000 nM in [9] (setting [22]); < 100 nM in [10] (setting [21]); 1000 nM in test [11] (setting [23]). Moreover, the “inhibition of AXL in panel of 11 kinases” value in test [12] is “strongly inhibited”. Moreover, the “inhibition of FAK2 in panel of 11 kinases” value in test [13] is “strongly inhibited”.
As to `O=C(Nc1ccc(F)nc1)C1CCN1c1nc2c(c(Nc3cc(C4CC4)[nH]n3)n1)CCC2` (racemic) [Compound 5, 1-(4-(5-cyclopropyl-1H-pyrazol-3-ylamino)-6,7-dihydro-5H-cyclopenta[d]pyrimidin-2-yl)-N-(6-fluoropyridin-3-yl)azetidine-2-carboxamide], the “phosphorylated AKT levels normalized to actin levels (pAKT/actin)” value in test [1] (1 nM compound 2 h) worked out at 0.61; in [1] (10 nM compound 2 h), 0.04; in test [1] (100 nM compound 2 h) it was 0.00. Besides, the inhibition at 0.03 µM in test [14] (activated IR, 30 nM, average, read-out: % Inh @ 30 nM Avg) stood at 76%. Also, the IC50 in test [14] (activated IR, read-out: IC50) is 8.3e-09 M and 1.2e-08 M; in [2] (setting [18]) it was 10 nM; in test [3] (setting [19]), < 100 nM; in test [4] (setting [20]), 100 nM; in test [5] (setting [21]), < 10000 nM; in test [6] (setting [21]), < 1000 nM. Besides, the 50% inhibitory concentration (IC50) in test [7] (setting [21]) was < 1000 nM; in test [8] (setting [21]), < 1000 nM; in test [9] (setting [22]), 1000 nM; in [10] (setting [21]), < 1000 nM; in [11] (setting [23]), < 100000 nM. The “inhibition of AXL in panel of 11 kinases” value in test [12] is listed as “strongly inhibited”. In addition, the “inhibition of FAK2 in panel of 11 kinases” value in [13] was “strongly inhibited”.
Turning to `O=C(Nc1ccc(F)nc1)C1CCCN1c1nc2c(c(Nc3cc(C4CC4)[nH]n3)n1)CCC2` (single isomer, unassigned) [Compound 2b, 1-(4-(5-cyclopropyl-1H-pyrazol-3-ylamino)-6,7-dihydro-5H-cyclopenta[d]pyrimidin-2-yl)-N-(6-fluoropyridin-3-yl)pyrrolidine-2-carboxamide], the “phosphorylated AKT levels normalized to actin levels (pAKT/actin)” value is given as 0.80 in test [1] (1 nM compound 2 h), 0.22 in test [1] (10 nM compound 2 h) and 0.03 in test [1] (100 nM compound 2 h). In test [14] (IR, ATP 50 μM, run N1), the “Hill Slope N1” value amounted to 1.34. Moreover, the half-maximal inhibitory concentration (IC50) was 5.51e-09 M in [14] (IR, ATP 50 μM, run N1, read-out: IC50 (M) N1); 4.07e-09 M in test [14] (IR, ATP 50 μM, run N2, read-out: IC50 (M) N2); 5.7e-09 M in test [14] (activated IR, read-out: IC50); 500 nM in test [2] (HT-29, colon cancer, 72 h); < 10 nM in test [3] (setting [15]); < 1000 nM in test [3] (setting [19]). In addition, the concentration for half-maximal inhibition (IC50) is < 10000 nM in test [3] (setting [16]); < 100 nM in test [4] (setting [20]); < 10 nM in test [4] (setting [17]); 100 nM in [6] (72 h); < 1000 nM in [6] (setting [21]); 1000 nM in [7] (setting [21]). Besides, the concentration for half-maximal inhibition (IC50) in [8] (setting [21]) was 1000 nM; in [9] (setting [22]) it was < 10000 nM; in test [10] (setting [21]), < 1000 nM; in test [11] (setting [23]) it was < 10000 nM. The “Hill Slope N2” value in test [14] (IR, ATP 50 μM, run N2) was determined as 1.13. Also, the inhibition at 0.01 µM in test [12] lay within 40 to 59%. Moreover, the inhibition at 0.1 µM in test [12] (read-out: Average % Inh @ 100 nM) is > 60%. Also, in [12] (read-out: Average % Inh @ 1 μM), the inhibition at 1 µM was > 60%.
